Consider 38 molecules from patent US12234211B2, “Cycloolefin substituted heteroaromatic compounds and their use” (HUTCHISON MEDIPHARMA LIMITED, priority 2017, dated 2025).

Broadly, the IC50 is the concentration at which inhibition is half-maximal.

In one test the target is T1, IDH2-R140Q (Homo sapiens, UniProt P48735, R140Q).
T1 construct: expressed in transfected cells
T1 sequence (P48735 40-452 R140Q): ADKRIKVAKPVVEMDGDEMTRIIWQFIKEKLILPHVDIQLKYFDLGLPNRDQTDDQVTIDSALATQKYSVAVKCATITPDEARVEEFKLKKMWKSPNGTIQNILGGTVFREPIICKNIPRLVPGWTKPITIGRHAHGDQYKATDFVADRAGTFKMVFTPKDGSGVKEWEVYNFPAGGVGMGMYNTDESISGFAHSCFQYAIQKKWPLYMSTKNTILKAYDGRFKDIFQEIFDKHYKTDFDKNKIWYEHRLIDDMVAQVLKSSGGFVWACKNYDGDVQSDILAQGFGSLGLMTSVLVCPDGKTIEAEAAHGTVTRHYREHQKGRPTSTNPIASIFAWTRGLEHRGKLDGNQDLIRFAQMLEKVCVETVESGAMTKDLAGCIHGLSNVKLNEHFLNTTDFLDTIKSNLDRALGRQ
The test is described as follows: Fluorescent determination of IDH2-R140Q cell activity (2-HG in U87MGR140Q cells). The format is cell-based. Particulars: 72 hours incubation, read-out: IC50 (2-HG inhibition). On the procedure: Enzyme reaction solution: 1 mM nicotinamide adenine dinucleotide (NAD), 0.6 ng/μL D-2-hydroxyglutarate dehydrogenase (D2HGDH), 0.8 U/mL lipoamidase dehydrogenase (Diaphorase) and 60 μM Resazurin in 40 mM Tris.HCl pH 8.8 assay buffer.
Standard curve stock solution: The standard of 2-HG sodium salt was serially diluted in serum-free MEM medium to make a standard curve stock solution.
100 μL of U87MGR140Q cells were seeded at a density of 6×10^4/mL per well in a 96-well plate a.
From each well of 96-well plate a, 50 μL of the culture supernatant was transferred to the corresponding well of 96-well plate b; at the same time, 50 μL of standard curve stocking solution was added to other wells of 96-well plate b. Then 10 μl of 360 mM hydrochloric acid was added to all the wells. After shaking and mixing, the plate was placed on ice for 10 minutes, and then 10 μl of 420 mM Tris-base was added. After shaking and mixing, the plate was placed on ice for additional 5 minutes. Then the plate was centrifuged at 2500 rpm for 10 minutes.
After centrifuging, from each well of 96-well plate b, 20 μL of the supernatant was transferred to 96-well plate c. An additional 80 μL of the enzyme reaction solution was added to each well and incubated at 25° C. for 90 minutes.
A standard curve of the fluorescence value vs. the corresponding 2-HG concentration was made, and the 2-HG concentration corresponding to each concentration point of the compound was calculated, then the inhibition ratio was calculated, and the data was analyzed using XLfit5 (ID Business Solutions Limited) software to obtain the IC50 value.
The inhibition ratio was calculated as follows: Inhibition Ratio (IH %)=(1-2-HG concentration of test compound treated cells/2-HG concentration of control cells)×100%.

Another test addresses T2, IDH1-R132H (Homo sapiens, UniProt O75874, R132H).
T2 construct: expressed in transfected cells; host or cells: U87MG cells (U87MGR132H)
The test is described as follows: Fluorescent determination of IDH1-R132H cell activity (2-HG in U87MGR132H cells). The test is classed as cell-based. The settings on record: 2-HG inhibition in U87MGR132H cells transfected with IDH1-R132H mutant plasmid.

Structures are written as SMILES.

T2 sequence (O75874 whole entry R132H): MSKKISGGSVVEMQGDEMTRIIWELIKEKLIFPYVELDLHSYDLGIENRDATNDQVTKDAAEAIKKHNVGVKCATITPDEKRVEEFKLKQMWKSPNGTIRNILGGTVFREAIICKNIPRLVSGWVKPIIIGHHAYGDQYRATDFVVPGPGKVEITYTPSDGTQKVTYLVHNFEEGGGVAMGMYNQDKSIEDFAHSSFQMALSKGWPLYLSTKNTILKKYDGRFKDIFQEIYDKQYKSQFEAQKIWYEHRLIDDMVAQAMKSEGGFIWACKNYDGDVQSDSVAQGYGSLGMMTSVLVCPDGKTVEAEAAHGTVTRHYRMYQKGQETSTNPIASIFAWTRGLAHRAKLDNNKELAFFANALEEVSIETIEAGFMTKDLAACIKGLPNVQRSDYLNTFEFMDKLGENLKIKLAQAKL

Consider `CCC(Nc1nc(N[C@H](C)C(F)(F)F)nc(C2=C(F)C(O)CCC2)n1)C(F)(F)F` (mixture of isomers) [Compound 15], for which the IC50 at IDH2-R140Q amounted to 259 nM; against IDH1-R132H it was 619 nM.

For the molecule `C[C@@H](Nc1nc(NCC2CCC2(F)F)nc(C2=C(F)C(O)CCC2)n1)C(F)(F)F` (mixture of isomers) [Compound 171], the IC50 at IDH2-R140Q is 268 nM; at IDH1-R132H, 1570 nM. The corresponding values for `C[C@H](CF)Nc1nc(N[C@H](C)C(F)(F)F)nc(C2=C(F)C(O)CCC2)n1` (mixture of isomers) [Compound 169] are 738 nM and 9460 nM. With `C[C@H](Nc1nc(N[C@H](C)C(F)(F)F)nc(C2=C(F)C(O)CCC2)n1)C1CC1` (mixture of isomers) [Compound 8], the results for the IC50 on IDH2-R140Q and against IDH1-R132H were 216 nM and 1220 nM, respectively. The corresponding values for `C[C@@H](Nc1nc(NCC2CC2)nc(C2=C(F)C(O)C(F)(F)CC2)n1)C(F)(F)F` (stereo partly drawn) [Compound 234, 3-(4-((Cyclopropylmethyl)amino)-6-(((R)-1,1,1-trifluoropropan-2-yl)amino)-1,3,5-triazin-2-yl)-2,6,6-trifluorocyclohex-2-en-1-ol] are 78 nM and 1760 nM. In the case of `OC1C(F)=C(c2nc(NOCC3CC3)nc(Nc3ccnc(C(F)(F)F)c3)n2)CCC1(F)F` (stereo not shown) [Compound 213], the IC50 at IDH2-R140Q was 38 nM; against IDH1-R132H, over 10000 nM. For the molecule `CCCONc1nc(Nc2ccnc(C(F)(F)F)c2)nc(C2=C(F)C(O)C(F)(F)CC2)n1` (stereo not shown) [Compound 217], the results for the IC50 on IDH2-R140Q and at IDH1-R132H were 69 nM and over 10000 nM, respectively.

For the molecule `C[C@@H](Nc1nc(N[C@H](C)C(F)(F)F)nc(C2=C(F)C(O)C(F)CC2)n1)C(F)(F)F` (stereo partly drawn) [Compound 269, 3-(4,6-Bis(((R)-1,1,1-trifluoropropan-2-yl)amino)-1,3,5-triazin-2-yl)-2,6-difluorocyclohex-2-en-1-D-1-ol], the values for the IC50 at IDH2-R140Q and against IDH1-R132H were 137 nM and 296 nM, respectively. The corresponding values for `CC(C)(C)ONc1nc(Nc2ccc3sncc3c2)nc(C2=C(F)C(O)CCC2)n1` (racemic) [Compound 34] are 145 nM and over 10000 nM. The corresponding values for `C[C@@H](Nc1nc(NC2CC(F)(F)C2)nc(C2=C(F)C(O)CCC2)n1)C(F)(F)F` (mixture of isomers) [Compound 31] are 110 nM and 280 nM. The corresponding values for `C[C@H](Nc1nc(N[C@@H](C)C(F)(F)F)nc(C2=C(F)C(O)CCC2)n1)C(F)(F)F` (mixture of isomers) [Compound 14] are 230 nM and 1330 nM.

As to `C[C@@H](Nc1nc(NCC2CC2)nc(C2=C(F)C(O)C(F)CC2)n1)C(F)(F)F` (single isomer, unassigned) [Compound 225], the IC50 on IDH2-R140Q came out at 36 nM; at IDH1-R132H it was 917 nM. The corresponding values for `Cc1cc(Nc2nc(NOC(C)(C)C)nc(C3=C(F)C(O)CCC3)n2)ccn1` (stereo not shown) [Compound 204] are 209 nM and over 10000 nM. The corresponding values for `CC(C)(C)ONc1nc(Nc2ccnc(C(F)(F)F)c2)nc(C2=C(F)C(O)C(F)(F)CC2)n1` (stereo not shown) [Compound 275] are 62 nM and 8020 nM. Regarding `C[C@@H](Nc1nc(NC2CC3(CCC3)C2)nc(C2=C(F)C(O)CCC2)n1)C(F)(F)F` (mixture of isomers) [Compound 159], the IC50 was determined as 205 nM on IDH2-R140Q and 2720 nM against IDH1-R132H. Consider `C[C@@H](Nc1nc(NC2CCCC2(F)F)nc(C2=C(F)C(O)CCC2)n1)C(F)(F)F` (mixture of isomers) [Compound 166], for which the results for the IC50 at IDH2-R140Q and against IDH1-R132H were 180 nM and 1350 nM, respectively. The corresponding values for `CC(C)CNc1nc(N[C@H](C)C(F)(F)F)nc(C2=C(F)C(O)CCC2)n1` (stereo partly shown) [Compound 78] are 69 nM and 1410 nM. For `[2H]C1(O)C(F)=C(c2nc(NC(C)C)nc(NC3CC(F)(F)C3)n2)CCC1(F)F` [Compound 274, 3-(4-((3,3-difluorocyclobutyl)amino)-6-(isopropylamino)-1,3,5-triazin-2-yl)-2,6,6-trifluorocyclohex-2-en-1-D-1-ol], the IC50 at IDH2-R140Q amounted to 84 nM; at IDH1-R132H, 3280 nM.

With `CC(C)Nc1nc(Nc2ccc3sncc3c2)nc(C2=C(F)C(O)CCC2)n1` (stereo not shown) [Compound 65], the IC50 on IDH2-R140Q was 152 nM; against IDH1-R132H, over 10000 nM. As for `CC(Nc1nc(N[C@H](C)C(F)(F)F)nc(C2=C(F)C(O)CCC2)n1)C(F)F` (mixture of isomers) [Compound 174], the concentration for half-maximal inhibition (IC50) was determined as 96 nM at IDH2-R140Q and 343 nM at IDH1-R132H. Take `[2H]C1([2H])CCC(c2nc(NC(C)C)nc(NC3CC(F)(F)C3)n2)=C(F)C1O` (stereo not shown) [Compound 56]: on IDH2-R140Q, the IC50 amounted to 93 nM. With `CC(C)CNc1nc(N[C@H](C)C(F)(F)F)nc(C2=C(F)C(O)CCC2)n1` (mixture of isomers) [Compound 12], the IC50 at IDH2-R140Q was determined as 199 nM. In the case of `CC[C@@H](C)Nc1nc(N[C@H](C)C(F)(F)F)nc(C2=C(F)C(O)CCC2)n1` (mixture of isomers) [Compound 164], the IC50 at IDH2-R140Q is 176 nM. On the same count and under the same terms, the same measure for `CC(C)Nc1nc(NC(C)C)nc(C2=C(F)C(O)CCC2)n1` (stereo not shown) [Compound 25]: 665 nM; for `OC1CCCC(c2nc(Nc3ccc(F)cc3)nc(Nc3ccnc(C(F)(F)F)c3)n2)=C1F` (stereo not shown) [Compound 72]: 42 nM; for `C[C@@H](Nc1nc(NC2CCCC2)nc(C2=C(F)C(O)CCC2)n1)C(F)(F)F` (mixture of isomers) [Compound 10]: 113 nM.

With `C[C@@H](Nc1nc(NCC(C)(C)O)nc(C2=CC(O)CCC2)n1)C(F)(F)F` (mixture of isomers) [Compound 131], the concentration for half-maximal inhibition (IC50) on IDH2-R140Q was 2800 nM.

On to `C[C@H](Nc1nc(N[C@@H](C)C(F)(F)F)nc(C2=C(F)C(O)CCC2)n1)C(F)(F)F` (stereo partly shown) [Compound 69], for which, on IDH2-R140Q, the IC50 was 173 nM. On the same count and under the same terms, to `CC(C)Nc1nc(N[C@H](C)C(F)(F)F)nc(C2=CCC(F)CC2)n1` (mixture of isomers) [Compound 38] belongs 1620 nM; to `[2H]C1(O)CCCC(c2nc(NC(C)C)nc(N[C@H](C)C(F)(F)F)n2)=C1F` (mixture of isomers) [Compound 23], 192 nM. Consider `CC[C@H](C)Nc1nc(N[C@H](C)C(F)(F)F)nc(C2=C(F)C(O)CCC2)n1` (mixture of isomers) [Compound 165], for which the IC50 at IDH2-R140Q stood at 198 nM.

As to `C[C@@H](Nc1nc(NCC(F)(F)F)nc(C2=C(F)C(O)C(F)(F)CC2)n1)C(F)(F)F` (mixture of isomers) [Compound 245], the IC50 against IDH1-R132H stood at 1500 nM. With `C[C@@H](Nc1nc(NCC2CC2)nc(C2=CCCCC2)n1)C(F)(F)F` [Compound 192], the half-inhibitory concentration (IC50) on IDH2-R140Q turned out to be 314 nM.

As for `[2H]C([2H])([2H])C([2H])(Nc1nc(N[C@@H](C)C(F)(F)F)nc(C2=C(F)C(O)CCC2)n1)C([2H])([2H])[2H]` (stereo partly shown) [Compound 53], the IC50 on IDH2-R140Q stood at 131 nM. As for `CC(C)Nc1nc(N[C@H](C)C(F)(F)F)nc(C2=C(Cl)C(O)CCC2)n1` (mixture of isomers) [Compound 17], the IC50 on IDH2-R140Q was found to be 1620 nM.

On to `CC(C)C(=O)Nc1nc(N[C@H](C)C(F)(F)F)nc(C2=CC(O)CCC2)n1` (mixture of isomers) [Compound 137], for which the IC50 at IDH2-R140Q turned out to be 1540 nM. Still for that read-out and setting: to `[2H]C1(O)CCCC(c2nc(N[C@H](C)C(F)(F)F)nc(NC([2H])(C([2H])([2H])[2H])C([2H])([2H])[2H])n2)=C1F` (mixture of isomers) [Compound 29] belongs 177 nM; to `C[C@@H](Nc1nc(N[C@H]2CCOC2)nc(C2=CC(F)(F)CCC2)n1)C(F)(F)F` [Compound 139], 2510 nM.
